According to patent US20260258083A1, “T Cell Engager Masking Molecules” (AMGEN INC., priority 2023, published 2026):
Where a SMILES comes first, the peptide text is derived from it. Where no end group is shown, it is not given here. Side-chain parts run from the residue outwards. [ ]: non-standard residue; d: D form. maleimide = maleimide-thiosuccinimide linker; pGlu = O=C1CC[C@@H](C(=O)O)N1; P(Dap) = not defined here; PEG = not defined here

Tests used:
[1] = Mouse pharmacokinetic study, IV (Example 2); conditions: BL/6, mouse, plasma, iv, 1 mg/kg
Description: Example 2: Mouse Pharmacokinetic Study to Evaluate In Vivo PK
The 4-arm 20 kDa PepPOL conjugate was dosed by IV administration to BL/6 mice at 0.82 or 8.2 mg/kg dose levels. […] The PK profiles for each peptide were evaluated by quantifying plasma concentrations of total intact peptide material over time (see methods).

[2] = test system: FLT3×CD3 TCE (SEQ ID NO: 93); test: Association kinetics by KinExA (Table 5); format: binding; conditions: for koff: KinExA, FLT3×CD3 TCE; for fold-koff / fold-kon: relative to the parent CD3ε epitope peptide
Sequence of FLT3×CD3 TCE (SEQ ID NO: 93) (as listed by the source): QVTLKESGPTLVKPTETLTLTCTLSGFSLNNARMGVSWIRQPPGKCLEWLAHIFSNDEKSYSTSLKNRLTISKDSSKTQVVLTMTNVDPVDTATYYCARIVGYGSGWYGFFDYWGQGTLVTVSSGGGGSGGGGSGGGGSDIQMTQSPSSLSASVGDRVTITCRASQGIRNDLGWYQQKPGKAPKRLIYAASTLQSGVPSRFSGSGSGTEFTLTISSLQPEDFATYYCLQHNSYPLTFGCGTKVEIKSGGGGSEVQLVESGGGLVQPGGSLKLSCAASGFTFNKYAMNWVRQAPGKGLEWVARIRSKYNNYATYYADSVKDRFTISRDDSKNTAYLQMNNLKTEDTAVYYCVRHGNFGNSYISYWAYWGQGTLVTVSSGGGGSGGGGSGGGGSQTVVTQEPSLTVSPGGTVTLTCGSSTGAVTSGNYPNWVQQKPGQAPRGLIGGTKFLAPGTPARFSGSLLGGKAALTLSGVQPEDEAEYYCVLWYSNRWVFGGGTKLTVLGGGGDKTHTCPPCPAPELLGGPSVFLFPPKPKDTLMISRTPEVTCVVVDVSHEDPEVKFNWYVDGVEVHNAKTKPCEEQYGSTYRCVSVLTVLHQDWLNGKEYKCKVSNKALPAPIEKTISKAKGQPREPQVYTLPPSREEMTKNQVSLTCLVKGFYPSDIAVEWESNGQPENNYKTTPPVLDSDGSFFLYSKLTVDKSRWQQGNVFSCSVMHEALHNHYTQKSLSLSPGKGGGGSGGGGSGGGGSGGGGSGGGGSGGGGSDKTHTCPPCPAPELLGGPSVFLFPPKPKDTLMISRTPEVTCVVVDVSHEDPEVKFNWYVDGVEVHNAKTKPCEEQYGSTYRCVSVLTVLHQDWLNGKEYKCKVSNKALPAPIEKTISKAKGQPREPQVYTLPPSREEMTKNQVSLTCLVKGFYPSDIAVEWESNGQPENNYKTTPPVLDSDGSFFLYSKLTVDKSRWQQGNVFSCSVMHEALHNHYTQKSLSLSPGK
Description: (§1) • 1. Preparation of NHS-activated sepharose fast-flow beads: • 2. Fast flow sepharose suspension in 100% IPA, washed twice with milliQ H20, mild centrifugation to pool beads in between wash steps. • 3. Equilibrated in 0.15 M NaBO3, pH=8.5 buffer • 4. Added 80 mM PDEA to activate the resin for thiol exchange, 10 mins, r.t. • 5. Equilibrated resin with Hepes Buffered Saline-P (0.01 M HEPES pH 7.4, 0.15 M NaCl, 0.005% v/v Surfactant P2), pH 7.4 binding buffer • 6. Added 30 μg/mL of binding peptide, […] (SEQ ID NO; 297) or pGlu-[…] (SEQ ID NO: 300), reaction for 1 hr to functionalize resin. • 7. Quench with 10 mM L-Cys for 1 hour. • 8. Constant Binding Partner was FLT3×CD3 TCE (SEQ ID NO: 93), MW 105720, 3.2 mg/mL 31.21 uM was diluted to 333 pM and the pGlu-[…] peptide or pGlu-[…]-PEG (Pep-PEG v2) were titrated from 1 uM or 400 nM down to 2.3 pM concentrations relative to effective peptide molarity.
Association Kinetics by KinExA

[3] = molecular target: FLT3×CD3 TCE (SEQ ID NO: 93); test: Equilibrium binding affinity measurement by KinExA (Table 5); conditions: for Kd: KinExA, FLT3×CD3 TCE as constant binding partner; for fold-Kd: affinity gain relative to the parent CD3ε epitope peptide
Description: Equilibrium Binding Affinity Measurement by KinExA
as §1

[4] = test system: anti-CD3ε paratope of a CD3ε binding domain of a TCE; test: Affinity class of the binding peptide of the masking molecule
From the text: The exact value may vary with the respective TCE. However, the […]

[5] = test system: CDH3×MSLN dual targeting TCE with two CD3e binders (SEQ ID NO 255); test: TDCC assay, inhibition of cytotoxicity (Example 15); format: cell-based; conditions: same peptide concentration; PBMC E:T 10:1, 48 or 72 hours
Sequence of CDH3×MSLN dual targeting TCE with two CD3e binders (SEQ ID NO 255) (as listed by the source): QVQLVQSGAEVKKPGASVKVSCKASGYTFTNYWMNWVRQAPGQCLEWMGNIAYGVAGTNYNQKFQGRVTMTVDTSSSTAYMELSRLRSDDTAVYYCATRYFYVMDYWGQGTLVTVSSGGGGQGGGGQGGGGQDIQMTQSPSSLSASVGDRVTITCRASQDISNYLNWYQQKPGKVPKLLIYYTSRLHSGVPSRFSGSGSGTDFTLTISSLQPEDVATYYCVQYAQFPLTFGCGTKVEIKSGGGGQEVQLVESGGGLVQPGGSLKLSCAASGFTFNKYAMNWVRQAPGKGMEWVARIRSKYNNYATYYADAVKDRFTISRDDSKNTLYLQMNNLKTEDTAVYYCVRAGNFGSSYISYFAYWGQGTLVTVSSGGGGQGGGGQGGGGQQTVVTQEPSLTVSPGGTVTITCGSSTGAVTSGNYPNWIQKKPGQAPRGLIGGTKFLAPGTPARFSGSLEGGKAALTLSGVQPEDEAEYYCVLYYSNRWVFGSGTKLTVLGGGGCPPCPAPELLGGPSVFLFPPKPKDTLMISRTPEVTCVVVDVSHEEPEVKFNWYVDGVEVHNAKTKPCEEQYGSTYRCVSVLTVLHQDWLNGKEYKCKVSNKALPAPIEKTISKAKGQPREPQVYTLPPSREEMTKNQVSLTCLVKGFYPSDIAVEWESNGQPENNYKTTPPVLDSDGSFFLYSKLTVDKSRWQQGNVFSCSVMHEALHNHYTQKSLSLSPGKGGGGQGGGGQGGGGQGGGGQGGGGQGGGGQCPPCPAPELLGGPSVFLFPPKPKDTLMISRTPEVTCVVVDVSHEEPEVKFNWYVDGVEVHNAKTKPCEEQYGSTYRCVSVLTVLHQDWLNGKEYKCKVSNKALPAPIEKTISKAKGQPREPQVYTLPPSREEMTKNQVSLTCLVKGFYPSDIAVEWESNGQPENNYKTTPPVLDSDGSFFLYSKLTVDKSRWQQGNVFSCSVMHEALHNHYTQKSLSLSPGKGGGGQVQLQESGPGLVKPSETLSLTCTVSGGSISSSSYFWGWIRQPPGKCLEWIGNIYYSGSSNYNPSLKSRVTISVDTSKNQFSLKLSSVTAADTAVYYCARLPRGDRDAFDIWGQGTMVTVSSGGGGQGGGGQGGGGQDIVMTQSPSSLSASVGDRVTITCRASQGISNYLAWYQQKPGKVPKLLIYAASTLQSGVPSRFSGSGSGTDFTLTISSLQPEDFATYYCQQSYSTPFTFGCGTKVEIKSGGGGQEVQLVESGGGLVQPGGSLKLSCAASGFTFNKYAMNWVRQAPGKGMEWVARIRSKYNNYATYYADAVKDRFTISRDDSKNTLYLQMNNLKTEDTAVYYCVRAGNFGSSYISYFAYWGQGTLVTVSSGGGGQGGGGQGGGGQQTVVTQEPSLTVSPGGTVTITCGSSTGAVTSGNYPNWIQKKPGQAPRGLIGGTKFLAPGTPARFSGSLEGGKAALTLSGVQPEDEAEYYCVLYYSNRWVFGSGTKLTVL
Description: Example 15: TCE Masking Molecule Inhibition of Cytotoxicity and Cytokine Release of Representative CDH3×MSLN Dual Targeting TCE with Two CD3e Binders (SEQ ID NO 255)
In vitro potency of CD3e pepPEG was indirectly assessed by measuring in vitro activity of T cell engager (TCE) using T cell dependent cellular cytotoxicity (TDCC) assay. Either 100 pM or 300 pM of TCE was mixed with increasing concentrations of CD3e pepPEG before the mixture is treated to cells. Peripheral blood mononuclear cells (PBMCs) as effector cells were co-cultured with tumor target cells at an effector cell-to-target cell ratio of 10:1 in the presence of mixture of TCE and CD3e pepPEG for 48 hours or 72 hours at 37° C. Cytotoxicity of TCE was assessed by Steady-Glo (Promega) for luciferase-tagged target cells and CellTiter-Glo (Promega) for non-luciferase-tagged target cells after plates were washed to eliminate T cells. Specific cytotoxicity curves and EC50 values were derived using Prism 7.04 (GraphPad). Cytokine production was assessed in supernatants from TDCC assays using electro-chemiluminescence assays (MesoScale Discovery).

[6] = test system: STEAP1×CD3e heterodimeric TCE; test: T cell dependent cellular cytotoxicity (TDCC) assay, inhibition of TCE cytotoxicity; format: cell-based; conditions: STEAP1×CD3, CLDN6×CD3 and DLL3×CD3 TCE; PBMC E:T 10:1, 48 hours
Description: Example 12: In Vitro Cytotoxicity and Cytokine Release Inhibition by Binding Peptides
In vitro potency of CD3e pepPEG was indirectly assessed by measuring in vitro activity of T cell engager (TCE) using T cell dependent cellular cytotoxicity (TDCC) assay. […] Cytokine production was assessed in supernatants from TDCC assays using electro-chemiluminescence assays (MesoScale Discovery).

[7] = test system: CDH3-CD3-MSLN-CD3 TCE (SEQ ID NO 255); test: SPR assay of immobilized peptides binding with TCE; conditions: bivalent analyte model
Description: (§2) Example 14: SPR Assay of Immobilized Peptides Binding with TCE
(§3) A cytiva CM5 chip was first functionalized with PDEA (2-(2pyridinyldithio)ethaneamine) under standard ((1-ethyl-3-(3-dimethylaminopropyl)carbodiimide)/(N-hydroxysuccinimide) EDC/NHS coupling conditions where the PDEA is dissolved to 20 mM and 1 M NaCl in 0.1 M sodium acetate pH 4.3. Binding peptides were dissolved to 50- or 100-ug/mL respectively in PBST, pH 6.5, and coupling times were optimized to yield the desired surface density.

[8] = test system: CLDN6xCD3 TCE SEQ ID NO 340; test: SPR assay of immobilized peptides binding with TCE; conditions: immobilized peptide, Kinetic 1:1 Binding
Sequence of CLDN6xCD3 TCE SEQ ID NO 340 (as listed by the source): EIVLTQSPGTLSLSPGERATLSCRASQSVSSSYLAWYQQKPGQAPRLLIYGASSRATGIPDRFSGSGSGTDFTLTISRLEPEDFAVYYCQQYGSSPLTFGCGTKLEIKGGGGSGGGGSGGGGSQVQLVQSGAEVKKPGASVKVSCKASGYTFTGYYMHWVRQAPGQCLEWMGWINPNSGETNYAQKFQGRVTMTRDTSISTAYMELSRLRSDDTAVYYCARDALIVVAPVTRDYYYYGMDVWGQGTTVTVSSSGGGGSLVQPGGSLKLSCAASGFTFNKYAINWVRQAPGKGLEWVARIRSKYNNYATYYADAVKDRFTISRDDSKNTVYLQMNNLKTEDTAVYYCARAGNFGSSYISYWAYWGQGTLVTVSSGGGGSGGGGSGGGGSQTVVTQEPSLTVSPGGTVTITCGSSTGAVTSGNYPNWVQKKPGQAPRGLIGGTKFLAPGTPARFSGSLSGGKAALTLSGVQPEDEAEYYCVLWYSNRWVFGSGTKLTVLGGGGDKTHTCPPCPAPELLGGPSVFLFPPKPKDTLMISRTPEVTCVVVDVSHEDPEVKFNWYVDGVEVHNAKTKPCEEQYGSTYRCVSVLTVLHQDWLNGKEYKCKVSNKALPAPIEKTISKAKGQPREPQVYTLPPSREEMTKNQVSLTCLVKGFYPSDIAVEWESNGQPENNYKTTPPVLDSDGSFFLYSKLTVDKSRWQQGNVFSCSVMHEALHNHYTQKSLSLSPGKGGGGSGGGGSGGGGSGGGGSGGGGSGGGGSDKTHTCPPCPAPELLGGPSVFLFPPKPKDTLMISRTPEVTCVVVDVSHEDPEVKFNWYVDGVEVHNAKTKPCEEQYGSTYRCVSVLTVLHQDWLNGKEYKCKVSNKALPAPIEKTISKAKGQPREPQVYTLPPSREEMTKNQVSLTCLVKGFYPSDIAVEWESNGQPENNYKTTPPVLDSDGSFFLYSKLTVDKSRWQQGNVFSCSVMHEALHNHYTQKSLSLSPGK
Description: as §2, §3

[9] = test system: DLL3xCD3 TCE SEQ ID NO 104; test: SPR assay of immobilized peptides binding with TCE; conditions: immobilized peptide, Kinetic 1:1 Binding
Description: as §2, §3

[10] = test system: FLT3xCD3 TCE SEQ ID NO 93; test: SPR assay of immobilized peptides binding with TCE; conditions: immobilized peptide, Kinetic 1:1 Binding
Description: as §2, §3

[11] = test system: Steap 1xCD3 TCE SEQ ID NO 373 + 374 + 375; test: SPR assay of immobilized peptides binding with TCE; conditions: immobilized peptide, Kinetic 1:1 Binding
Sequence of Steap 1xCD3 TCE SEQ ID NO 373 + 374 + 375 (as listed by the source): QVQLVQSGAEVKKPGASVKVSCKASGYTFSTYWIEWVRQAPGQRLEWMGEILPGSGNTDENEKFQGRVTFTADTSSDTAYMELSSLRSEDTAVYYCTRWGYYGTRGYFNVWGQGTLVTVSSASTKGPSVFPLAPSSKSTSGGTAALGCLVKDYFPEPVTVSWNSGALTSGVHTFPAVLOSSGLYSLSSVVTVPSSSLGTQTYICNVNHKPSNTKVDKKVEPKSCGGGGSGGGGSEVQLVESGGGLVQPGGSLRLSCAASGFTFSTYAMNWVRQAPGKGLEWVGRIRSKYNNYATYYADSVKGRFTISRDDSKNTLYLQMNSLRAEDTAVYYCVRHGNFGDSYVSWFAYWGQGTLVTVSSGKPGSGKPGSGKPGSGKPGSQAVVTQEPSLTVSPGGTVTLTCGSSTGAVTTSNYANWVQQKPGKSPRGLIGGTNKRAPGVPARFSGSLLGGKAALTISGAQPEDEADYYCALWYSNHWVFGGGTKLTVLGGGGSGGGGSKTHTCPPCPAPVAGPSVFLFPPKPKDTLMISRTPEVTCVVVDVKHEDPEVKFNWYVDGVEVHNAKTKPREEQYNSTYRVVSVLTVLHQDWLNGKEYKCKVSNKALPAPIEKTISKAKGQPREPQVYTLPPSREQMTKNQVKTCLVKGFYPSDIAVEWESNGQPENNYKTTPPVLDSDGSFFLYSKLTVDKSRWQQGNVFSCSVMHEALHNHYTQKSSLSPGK
Sequence of Steap 1xCD3 TCE SEQ ID NO 373 + 374 + 375 (as listed by the source partner): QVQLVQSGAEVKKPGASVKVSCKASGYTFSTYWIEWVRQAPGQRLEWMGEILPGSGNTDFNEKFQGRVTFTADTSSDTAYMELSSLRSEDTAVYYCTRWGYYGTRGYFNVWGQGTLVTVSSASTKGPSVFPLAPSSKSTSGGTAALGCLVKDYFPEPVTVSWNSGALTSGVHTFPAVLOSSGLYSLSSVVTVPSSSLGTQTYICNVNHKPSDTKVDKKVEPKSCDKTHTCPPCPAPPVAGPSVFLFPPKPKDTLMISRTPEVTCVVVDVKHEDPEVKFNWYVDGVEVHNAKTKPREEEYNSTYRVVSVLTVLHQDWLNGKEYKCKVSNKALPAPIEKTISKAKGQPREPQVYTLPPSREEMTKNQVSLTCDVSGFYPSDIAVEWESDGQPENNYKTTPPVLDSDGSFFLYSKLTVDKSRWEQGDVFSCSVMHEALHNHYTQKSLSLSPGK
Sequence of Steap 1xCD3 TCE SEQ ID NO 373 + 374 + 375 (as listed by the source partner): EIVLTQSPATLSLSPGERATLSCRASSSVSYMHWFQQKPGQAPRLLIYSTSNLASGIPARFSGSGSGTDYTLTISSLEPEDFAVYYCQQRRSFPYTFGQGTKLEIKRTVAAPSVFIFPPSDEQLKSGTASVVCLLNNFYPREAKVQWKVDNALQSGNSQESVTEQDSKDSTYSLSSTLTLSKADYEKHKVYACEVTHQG
Description: as §2, §3

[12] = masking molecules tested with respect to TCE of SEQ ID NO 255 (Table 20)
[13] = masking molecules of Example 12

CSCC[C@H](NC(=O)CNC(=O)[C@H](CCCCN)NC(=O)CNC(=O)[C@H](CCSC)NC(=O)[C@H](CCC(=O)O)NC(=O)[C@H](CCC(=O)O)NC(=O)[C@H](CC(N)=O)NC(=O)CNC(=O)[C@H](CC(=O)O)NC(=O)[C@@H](N)CCC(N)=O)C(=O)N[C@@H](CCC(=O)O)C(=O)N[C@@H](CCC(=O)O)C(=O)N[C@@H](CC(N)=O)C(=O)NCC(=O)N[C@@H](CC(=O)O)C(=O)N[C@@H](CCC(N)=O)C(=O)O (H-QDGNEEMGKGMEENGDQ-OH)
half-life [1]: 3 to 10 min

CSCC[C@H](NC(=O)CNC(=O)[C@H](CCCCN)NC(=O)CNC(=O)[C@H](CCSC)NC(=O)[C@H](CCC(=O)O)NC(=O)[C@H](CCC(=O)O)NC(=O)[C@H](CC(N)=O)NC(=O)CNC(=O)[C@H](CC(=O)O)NC(=O)[C@@H](N)CCC(N)=O)C(=O)N[C@@H](CCC(=O)O)C(=O)N[C@@H](CCC(=O)O)C(=O)N[C@@H](CC(N)=O)C(=O)NCC(=O)N[C@@H](CC(=O)O)C(=O)N[C@@H](CCC(N)=O)C(=O)N[C@@H](CS)C(=O)O (H-QDGNEEMGKGMEENGDQC-OH; N-terminus and C-terminus assumed)
half-life [1]: 3 to 10 min

(QDGNEEMG)3K
koff [2]: 0.00016 s⁻¹

QDGNEEMG [reference compound]
koff [2]: 0.0248 s⁻¹

QDGNEEMG-K(Nϵ)-GMEENGDQ (chain 1 QDGNEEMGK; also: branched: chains joined through a Lys, chain 2 on Lys Nε, direction not given here)
Kd [3]: 1.03 nM | fold-Kd [3]: 21.65 | koff [2]: 0.00447 s⁻¹ | fold-koff [2]: 0.25 | fold-kon [2]: 5.38

QDGNEEMG-P(Dap)-GMEENGDQ (chain 1 QDGNEEMG-{P(Dap)}; reading uncertain; also: chains linked via Dap residue 'P(Dap)')
Kd [3]: 1.1 nM | fold-Kd [3]: 32.55 | koff [2]: 0.0075 s⁻¹ | fold-koff [2]: 0.30 | fold-kon [2]: 6.36

QDGNEEMGGMEENGDQ
koff [2]: 0.00471 s⁻¹

QDGNEEMGK
koff [2]: 0.0179 s⁻¹

QDGNEEMGKQDGNEEMG
koff [2]: 0.00497 s⁻¹

QDGNEEMGQDGNEEMG
koff [2]: 0.00586 s⁻¹

pE-DGEEELKGC (PEG)-NH2 [79676-1] ([pGlu]DGEEELKGC(PEG)-NH2; not fully specified; printed as pE-DGEEELKGC (PEG)-NH2; reading uncertain; also: PEG type and size not given here)
Affinity [4, 12]: Intermediote | inhibition of cytotoxicity, in vitro potency (FIG. 20) [5]: comparable results among each other

pE-DGEEELKGC (PEG)-NH2 [79677-1] ([pGlu]DGEEELKGC([maleimide-4‑arm PEG 5 kDa])-NH2; also: 4-arm PEG conjugate, number of peptide copies not given here)
Affinity [4, 12]: Intermediate (an affinity of about 10 to 150, preferably 10 to 100 mM is considered of “high” affinity) | inhibition of cytotoxicity, in vitro potency (FIG. 20) [5]: comparable results among each other

pE-DGEEELKGK (PEG)-OH ([pGlu]DGEEELKGK(PEG 20 kDa)-OH; not fully specified) [79921-1]
Affinity [4, 12]: Intermediate (an affinity of about 10 to 150, preferably 10 to 100 mM is considered of “high” affinity)

pE-DGEEELKGK (mPEG)-OH ([pGlu]DGEEELKGK(mPEG)-OH; numbers in words are those of the source; also: Lys side chain linked via thioether to 20 kDa mPEG) [82138-1]
Affinity [4, 12]: Intermediate (an affinity of about 10 to 150, preferably 10 to 100 mM is considered of “high” affinity)

pE-DGNEELKGC (PEG)-NH2 [79674-1] ([pGlu]DGNEELKGC(PEG)-NH2; not fully specified; printed as pE-DGNEELKGC (PEG)-NH2; reading uncertain; also: PEG type and size not given here)
Affinity [4, 13]: High (an affinity indicated as Kd of about 0.05 to about 10 nM, typically 0.1 pM to 10 nM or 500 pM to 5 nM is considered of “high” affinity) | Affinity [4, 12]: High (an affinity indicated as Kd of about 0.05 to about 10 nM, typically 0.1 pM to 10 nM or 500 pM to 5 nM is considered of “high” affinity) | inhibition activity against TCE cytotoxicity (FIG. 15) [6]: highest inhibition activity

pE-DGNEELKGC (PEG)-NH2 [79675-1] ([pGlu]DGNEELKGC-NH2; also: PEG attached, size and site not given here in name)
Affinity [4, 13]: High (an affinity indicated as Kd of about 0.05 to about 10 nM, typically 0.1 pM to 10 nM or 500 pM to 5 nM is considered of “high” affinity) | Affinity [4, 12]: High (an affinity indicated as Kd of about 0.05 to about 10 nM, typically 0.1 pM to 10 nM or 500 pM to 5 nM is considered of “high” affinity) | inhibition activity against TCE cytotoxicity (FIG. 15) [6]: highest inhibition activity

pE-DGNEELKGC (PEG)-OH (N-terminal pyroglutamate, 20K PEG on Cys) [71203-2]
Affinity [4, 13]: High (an affinity indicated as Kd of about 0.05 to about 10 nM, typically 0.1 pM to 10 nM or 500 pM to 5 nM is considered of “high” affinity) | Affinity [4, 12]: High (an affinity indicated as Kd of about 0.05 to about 10 nM, typically 0.1 pM to 10 nM or 500 pM to 5 nM is considered of “high” affinity)

pE-DGNEELKGK (PEG)-OH ([pGlu]DGNEELKGK-OH; not fully specified (residue 10); printed as pE-DGNEELKGK (PEG)-OH) [73135-2]
Affinity [4, 13]: High (an affinity indicated as Kd of about 0.05 to about 10 nM, typically 0.1 pM to 10 nM or 500 pM to 5 nM is considered of “high” affinity) | Affinity [4, 12]: High (an affinity indicated as Kd of about 0.05 to about 10 nM, typically 0.1 pM to 10 nM or 500 pM to 5 nM is considered of “high” affinity)

pE-DGNEELKGK (mPEG)-OH ([pGlu]DGNEELKGK([acetamide‑thioether-mPEG 20 kDa])-OH) [73136-2]
Affinity [4, 13]: High (an affinity indicated as Kd of about 0.05 to about 10 nM, typically 0.1 pM to 10 nM or 500 pM to 5 nM is considered of “high” affinity) | Affinity [4, 12]: High (an affinity indicated as Kd of about 0.05 to about 10 nM, typically 0.1 pM to 10 nM or 500 pM to 5 nM is considered of “high” affinity) | inhibition of cytotoxicity, in vitro potency (FIG. 20) [5]: comparable results among each other

pGlu-DGNEELKGC ([pGlu]DGNEELKGC; also: entry DGNEELKGC marks its position 1 as pyroglutamic acid)
fast component for the off-rate [7]: 0.0212 s⁻¹ | fast component of the on-rate [7]: 2.42e+06 M⁻¹ s⁻¹ | ka [8]: 2.72e+06 M⁻¹ s⁻¹ | kd [8]: 0.0038 s⁻¹ | ka [9]: 2.14e+06 M⁻¹ s⁻¹ | kd [9]: 0.00279 s⁻¹ | ka [10]: 1.88e+06 M⁻¹ s⁻¹ | kd [10]: 0.0024 s⁻¹ | ka [11]: 2e+06 M⁻¹ s⁻¹ | kd [11]: 0.00514 s⁻¹
